According to ChEMBL document CHEMBL6134865, “Rational Design of Methylene Blue-Raloxifene Conjugates for Efficient Breast Tumor Elimination Triggered by ERα Degradation” (J Med Chem, 2025):
Activity calls are given as the source filed them. The calls are words filed in the database; no cut-off is given here.

Key:
[1] = Induction of ROS generation in water at 1 uM irradiated with 660 nm 0.4 W/cm2 light up to 180 sec by DCFH probe based fluorescence spectra analysis; type: functional
[2] = Cytotoxicity against human MCF-10A cells assessed as inhibition of cell proliferation incubated for 48 hrs in absence of light irradiation by MTT assay; type: toxicity, cell-based
[3] = test system: MCF7; test: Induction of ROS generation in human MCF7 cells assessed as cell percentage with elevated ROS at 1 uM incubated for 6 hrs followed by irradiation with 660 nm 0.4 W/cm2 light for 3 min by DCFH-DA probe based flow cytometric analysis (reference value: 0.2 %); type: functional; settings: time 363 min, 6.05 h
[4] = test system: MCF7; test: Induction of ROS generation in human MCF7 cells assessed as cell percentage with elevated ROS incubated for 6 hrs followed by irradiation with 660 nm 0.4 W/cm2 light for 5 min by DCFH-DA probe based flow cytometric analysis; type: functional; settings: dose 0.1-5 µM, time 365.0 min
[5] = Drug uptake in human MCF7 cell cytoplasm assessed as increase in red fluorescence at 1 uM incubated for 6 hrs by fluorescence imaging analysis; type: ADME, subcellular; settings: mcf7, 6 h
[6] = Drug uptake in human MCF7 cell nucleus assessed as increase in red fluorescence at 1 uM incubated for 6 hrs by fluorescence imaging analysis; type: ADME, subcellular; settings: mcf7, 6 h
[7] = test system: MCF7; test: Induction of ROS generation in human MCF7 cells assessed as increase in green fluorescence at 1 uM incubated for 6 hrs followed by irradiation with 660 nm 0.4 W/cm2 light for 5 min by fluorescence imaging analysis; type: functional, cell-based; settings: time 365.0 min
[8] = test system: MCF7; test: Photothermal effect in human MCF7 cells assessed as temperature of cell culture medium at 1 uM irradiated with 660 nm 0.4 W/cm2 light for 2 min (reference value: 26 degreeC); type: ADME, cell-based; settings: mcf7, 2 min
[9] = test system: MCF7; test: Photothermal effect in human MCF7 cells assessed as temperature of cell culture medium at 1 uM irradiated with 660 nm 0.4 W/cm2 light for 4 min (reference value: 26 degreeC); type: ADME, cell-based; settings: mcf7, 4 min
[10] = test system: MCF7; test: Antitumor activity against human MCF7 cells xenografted in female BALB/c mouse model assessed as tumor growth inhibition at 5 mg/kg, iv measured after 14 days with 660 nm 0.4 W/cm2 light irradiation for 5 mins at 4 hrs of incubation time relative to control; type: functional; settings: MCF7, light or radiation study, 336 h, time 14 day, read-out: TGI
[11] = test system: MCF7; test: Antitumor activity against human MCF7 cells xenografted in female BALB/c mouse model assessed as tumor growth inhibition at 5 mg/kg, iv measured after 14 days relative to control; type: functional; settings: MCF7, 336 h, time 14 day, read-out: TGI
[12] = Toxicity in female BALB/c mouse xenografted with human MCF7 cells assessed as change in hematocrit level at 5 mg/kg, iv measured after 14 days; type: organism-based; settings: in vivo, 336 h, time 14 day
[13] = Toxicity in female BALB/c mouse xenografted with human MCF7 cells assessed as change in red blood cell level at 5 mg/kg, iv measured after 14 days; type: organism-based; settings: in vivo, 336 h, time 14 day
[14] = Toxicity in female BALB/c mouse xenografted with human MCF7 cells assessed as change in hemoglobin level at 5 mg/kg, iv measured after 14 days; type: organism-based; settings: in vivo, 336 h, time 14 day
[15] = Toxicity in female BALB/c mouse xenografted with human MCF7 cells assessed as change in blood urea nitrogen level at 5 mg/kg, iv measured after 14 days; type: organism-based; settings: in vivo, 336 h, time 14 day
[16] = Toxicity in female BALB/c mouse xenografted with human MCF7 cells assessed as change in ALT level at 5 mg/kg, iv measured after 14 days with 660 nm 0.4 W/cm2 light irradiation for 5 mins at 4 hrs of incubation time; type: organism-based; settings: in vivo, 336 h, time 14 day
[17] = Toxicity in female BALB/c mouse xenografted with human MCF7 cells assessed as change in AST level at 5 mg/kg, iv measured after 14 days with 660 nm 0.4 W/cm2 light irradiation for 5 mins at 4 hrs of incubation time; type: organism-based; settings: in vivo, 336 h, time 14 day
[18] = Toxicity in female BALB/c mouse xenografted with human MCF7 cells assessed as change in creatinine level at 5 mg/kg, iv measured after 14 days with 660 nm 0.4 W/cm2 light irradiation for 5 mins at 4 hrs of incubation time; type: organism-based; settings: in vivo, 336 h, time 14 day
[19] = Drug uptake in female BALB/c mouse liver xenografted with human MCF7 cells at 5 mg/kg, iv measured after 4 hrs by fluorescence imaging analysis; type: ADME, organism-based; settings: in vivo
[20] = Toxicity in female BALB/c mouse xenografted with human MCF7 cells assessed as effect on heart histology at 5 mg/kg, iv measured after 14 days by H and E staining based analysis; type: organism-based; settings: in vivo, 336 h, time 14 day
[21] = Toxicity in female BALB/c mouse xenografted with human MCF7 cells assessed as effect on kidney histology at 5 mg/kg, iv measured after 14 days by H and E staining based analysis; type: organism-based; settings: in vivo, 336 h, time 14 day
[22] = test system: MCF7; test: cells; settings: Homo sapiens, MCF7, light or radiation study
Description: Antiproliferative activity against human MCF7 cells assessed as inhibition of cell proliferation incubated for 48 hrs with 660 nm 0.4 W/cm2 light irradiation for 1 min at 6th hr of incubation time by MTT assay

[23] = test system: MCF7; test: cells; settings: Homo sapiens, MCF7, light or radiation study; remark: listed apart in the source
Description: Antiproliferative activity against human MCF7 cells assessed as inhibition of cell proliferation incubated for 48 hrs with 660 nm 0.4 W/cm2 light irradiation for 3 min at 6th hr of incubation time by MTT assay

[24] = test system: MCF7; test: cells; settings: Homo sapiens, MCF7, light or radiation study; remark: listed apart in the source
Description: Antiproliferative activity against human MCF7 cells assessed as inhibition of cell proliferation incubated for 48 hrs with 660 nm 0.4 W/cm2 light irradiation for 5 min at 6th hr of incubation time by MTT assay

[25] = in vivo; settings: Sprague-Dawley, rat, po, 15 mg/kg
Description: Tmax in Sprague-Dawley rat at 15 mg/kg, po administered via gavage and measured after 0.5 to 168 hrs by LC-MS analysis

- Drug uptake [5]: Active
- Drug uptake [6]: Active
- T [8]: 28.4 °C
- T [9]: 30.9 °C
- Drug uptake [19]: Active
- IC50 [22]: 0.55 µM
- IC50 [23]: 0.2 µM
- IC50 [24]: 0.13 µM
- Tmax [25]: 6 h
Structure (SMILES): CCN(CC)c1ccc2nc3c4ccccc4/c(=N\CCCCCCC(=O)NCCOc4ccc(C(=O)c5c(-c6ccc(O)cc6)sc6cc(O)ccc56)cc4)cc-3sc2c1
- Activity [1]: Active
- IC50 at 48 h [2]: > 100 µM
- Activity [3]: 15%
- Activity [4]: Dose-dependent-effect
- Activity [7]: Active
- inhibition in vivo at 5 mg/kg [10]: 118%
- inhibition in vivo at 5 mg/kg [11]: 77.5%
- Activity [12]: Non-toxic
- Activity [13]: Non-toxic
- Activity [14]: Non-toxic
- Activity [15]: Non-toxic
- Activity [16]: Non-toxic
- Activity [17]: Non-toxic
- Activity [18]: Non-toxic
- Activity [20]: Non-toxic
- Activity [21]: Non-toxic
